Test system: pregnant women in first trimester (nausea and vomiting, morning sickness)
Assay: Treatment of morning sickness in pregnant women with chewable tablets (volunteer reports)
Format: in vivo, human
Conditions: volunteer 8, recalled from their first pregnancy
Source text: A group of pregnant women were provided with the tablets, as prepared in Example 3, and were advised to take one to two tablets per day.

In the case of `Cc1ncc(CO)c(CO)c1O` [vitamin B6, pyridoxine], the “Reported effect of vitamin B6 injections on nausea of pregnancy” value is reported as “did not feel helped”.

— patent publication US8536199B2, “Oral combination of vitamins” (priority 2008, dated 2013)
